# Experimental data published in article PMC10112232, “Comparison of Toxicities among Different Bumped Kinase Inhibitor Analogs for Treatment of Cryptosporidiosis” (Antimicrobial Agents and Chemotherapy, 2023).
# Read-outs that look alike come from different tables or passages of the source.
# How the values were obtained:
# [1] = target: T1, C. parvum calcium dependent protein kinase 1 (CpCDPK1) (Cryptosporidium parvum, UniProt A3FQ16); assay: In vitro inhibition of CpCDPK1; assay type: biochemical
# T1 sequence (A3FQ16 1-538): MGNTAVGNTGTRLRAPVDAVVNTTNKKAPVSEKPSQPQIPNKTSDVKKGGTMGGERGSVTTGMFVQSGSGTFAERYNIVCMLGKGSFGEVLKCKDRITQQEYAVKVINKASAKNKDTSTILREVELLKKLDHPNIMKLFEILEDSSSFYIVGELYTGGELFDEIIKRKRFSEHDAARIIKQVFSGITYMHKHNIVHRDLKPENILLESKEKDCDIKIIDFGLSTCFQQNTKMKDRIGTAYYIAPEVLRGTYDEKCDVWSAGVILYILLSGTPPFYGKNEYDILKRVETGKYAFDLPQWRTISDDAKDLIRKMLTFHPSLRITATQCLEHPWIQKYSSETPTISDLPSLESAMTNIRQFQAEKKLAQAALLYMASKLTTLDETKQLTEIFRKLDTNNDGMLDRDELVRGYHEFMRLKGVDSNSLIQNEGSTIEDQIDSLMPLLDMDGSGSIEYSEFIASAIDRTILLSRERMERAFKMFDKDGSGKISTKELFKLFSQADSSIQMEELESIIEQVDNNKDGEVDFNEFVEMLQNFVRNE
# Description: (§1) Methods for synthesis of BKIs ([17], [23]), efficacy against Nluc expressing C. parvum in infected adult IFN-γ KO mice ([6], [9]), in vivo mouse GI tract tissue exposure by LC/MS-MS analysis ([18], [28]), PK analysis of mouse plasma and brain tissue BKI concentrations by LC/MS-MS analysis ([29]), in vivo rat and dog cardiotoxicity screen ([30]), efficacy against IOWA-II strain C. parvum in infected neonatal calves ([13]), efficacy against C. hominis in infected piglets ([12]), in vitro inhibition of C. parvum CDPK1 (CpCDPK1) and human tyrosine kinase SRC (HsSRC) activity ([31]), in vitro inhibition of hERG ([32]), Nluc expressing C. parvum in vitro growth inhibition in infected HCT-8 cells ([6]), in vitro cytotoxicity in CRL-8155 and HepG2 cells ([29]), and mouse locomotor activity box ([33], [34]) have all been previously described. Analytes were measured by LC/MS-MS on an Acquity ultra performance liquid chromatography (UPLC) system in tandem with a Xevo TQ-S mass spectrometer (Waters, Milford, MA, USA).
# [2] = target: T2, human tyrosine kinase SRC (HsSRC) (Homo sapiens, UniProt P12931); assay: In vitro inhibition of HsSRC; assay type: biochemical; conditions: read-out: HsSR IC50
# Description: as §1
# [3] = In vitro cytotoxicity in CRL-8155 cells; assay type: cell-based; conditions: human
# Description: as §1
# hERG = hERG (Homo sapiens, UniProt Q12809); assay: In vitro inhibition of hERG; assay type: biochemical
# Description: as §1
# [4] = test system: Nluc expressing C. parvum; assay: Efficacy in IFN-γ KO mice infected with Nluc expressing C. parvum; assay type: in vivo; conditions: for difference in parasite excretion vs untreated control: n = 3
# Description: BKI-1841 was also tested at doses of 60, 30, 15, and 5 mg/kg once daily (QD) for 5 days, resulting in a minimum efficacious dose of 30 mg/kg that cleared parasite excretion to background levels by day 13 postinfection (Fig. 4).
# FIG 4 Efficacy of BKI-1841 in interferon-γ knockout mice infected with nanoluciferase expressing C. parvum. Treatments were separated into two separate experiments for BKI-1841. Untreated control groups for each experiment are grouped with their associated treatment in the figure keys. Dotted line denotes the limit of detection. Treatments were dosed on days 6 through 10 postinfection. […] QD = once daily.
# as §1
# [5] = Cardiovascular testing in anesthetized rats; assay type: in vivo, rat; conditions: for HR / MAP / dP/dt@50: rat
# Description: as §1
# C. hominis = assay: Efficacy in neonatal gnotobiotic piglets infected with C. hominis; assay type: in vivo; conditions: 5 mg/kg BID
# Description: Rectal swabs were processed for oocyst count and DNA measurement. The plot represents mean ± SEM. Wilcoxon matched-pairs signed rank test was conducted using GraphPad Prism 7.03. […] The 5 day doses were given on days 0–4, the 8 day doses were given on days 0–7.
# as §1
# [6] = 14-day multidose rat toxicity study; assay type: in vivo; conditions: rats
# Description: A control group of male and female rats were administered vehicle only for controls. […] Observations of feeding and general health were made twice daily. Clinical assessments were made at 1 h after each treatment. Blood was collected for hematology and blood chemistry before the first dose and prior to euthanasia. Necropsy and histology of organs (Liver, heart, lung, kidney, spleen, thymus, brain, spinal cord, nerves of the front and back legs, including muscle, bone marrow femur, stomach, small and large intestine, including lymph nodes, and femur and sternum, including epiphyseal plates, distal hind limb, and thyroid gland) were performed after euthanasia.
# [7] = target: T1, C. parvum calcium dependent protein kinase 1 (CpCDPK1); set-up: method as in PMID 30830766; conditions: read-out: CpCDPK1 IC50; cited from earlier work
# [8] = test system: Nluc expressing C. parvum; set-up: method as in PMID 30830766; conditions: cited from earlier work
# [9] = target: T2, human tyrosine kinase SRC (HsSRC); set-up: method as in PMID 30830766; conditions: read-out: HsSR IC50; cited from earlier work
# HepG2 cells = test system: HepG2 cells; set-up: method as in PMID 30830766; conditions: cited from earlier work
# CRL-8155 cells = test system: CRL-8155 cells; set-up: method as in PMID 30830766; conditions: cited from earlier work
# [10] = test system: Nluc expressing C. parvum; set-up: method as in PMID 30830766; conditions: IFN-γ KO mice, twice daily (BID) for 5 days; cited from earlier work
# [11] = set-up: method as in PMID 30830766; conditions: mice; cited from earlier work
# T2 sequence (P12931 whole entry): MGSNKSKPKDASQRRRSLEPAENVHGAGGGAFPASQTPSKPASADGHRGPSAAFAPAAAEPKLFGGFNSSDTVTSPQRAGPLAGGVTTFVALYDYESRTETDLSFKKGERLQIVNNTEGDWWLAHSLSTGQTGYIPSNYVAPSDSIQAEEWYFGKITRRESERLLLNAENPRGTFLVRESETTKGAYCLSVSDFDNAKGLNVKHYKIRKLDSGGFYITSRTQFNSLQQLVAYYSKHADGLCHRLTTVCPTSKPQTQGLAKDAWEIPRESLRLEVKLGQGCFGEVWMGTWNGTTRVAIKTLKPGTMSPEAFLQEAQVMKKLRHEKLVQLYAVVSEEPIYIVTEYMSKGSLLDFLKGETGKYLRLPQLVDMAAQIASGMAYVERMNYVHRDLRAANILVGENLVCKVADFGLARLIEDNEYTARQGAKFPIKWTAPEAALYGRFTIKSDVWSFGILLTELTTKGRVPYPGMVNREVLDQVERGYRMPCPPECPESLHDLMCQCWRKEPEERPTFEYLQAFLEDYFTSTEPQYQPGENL
# Chain of hERG (Q12809 whole entry): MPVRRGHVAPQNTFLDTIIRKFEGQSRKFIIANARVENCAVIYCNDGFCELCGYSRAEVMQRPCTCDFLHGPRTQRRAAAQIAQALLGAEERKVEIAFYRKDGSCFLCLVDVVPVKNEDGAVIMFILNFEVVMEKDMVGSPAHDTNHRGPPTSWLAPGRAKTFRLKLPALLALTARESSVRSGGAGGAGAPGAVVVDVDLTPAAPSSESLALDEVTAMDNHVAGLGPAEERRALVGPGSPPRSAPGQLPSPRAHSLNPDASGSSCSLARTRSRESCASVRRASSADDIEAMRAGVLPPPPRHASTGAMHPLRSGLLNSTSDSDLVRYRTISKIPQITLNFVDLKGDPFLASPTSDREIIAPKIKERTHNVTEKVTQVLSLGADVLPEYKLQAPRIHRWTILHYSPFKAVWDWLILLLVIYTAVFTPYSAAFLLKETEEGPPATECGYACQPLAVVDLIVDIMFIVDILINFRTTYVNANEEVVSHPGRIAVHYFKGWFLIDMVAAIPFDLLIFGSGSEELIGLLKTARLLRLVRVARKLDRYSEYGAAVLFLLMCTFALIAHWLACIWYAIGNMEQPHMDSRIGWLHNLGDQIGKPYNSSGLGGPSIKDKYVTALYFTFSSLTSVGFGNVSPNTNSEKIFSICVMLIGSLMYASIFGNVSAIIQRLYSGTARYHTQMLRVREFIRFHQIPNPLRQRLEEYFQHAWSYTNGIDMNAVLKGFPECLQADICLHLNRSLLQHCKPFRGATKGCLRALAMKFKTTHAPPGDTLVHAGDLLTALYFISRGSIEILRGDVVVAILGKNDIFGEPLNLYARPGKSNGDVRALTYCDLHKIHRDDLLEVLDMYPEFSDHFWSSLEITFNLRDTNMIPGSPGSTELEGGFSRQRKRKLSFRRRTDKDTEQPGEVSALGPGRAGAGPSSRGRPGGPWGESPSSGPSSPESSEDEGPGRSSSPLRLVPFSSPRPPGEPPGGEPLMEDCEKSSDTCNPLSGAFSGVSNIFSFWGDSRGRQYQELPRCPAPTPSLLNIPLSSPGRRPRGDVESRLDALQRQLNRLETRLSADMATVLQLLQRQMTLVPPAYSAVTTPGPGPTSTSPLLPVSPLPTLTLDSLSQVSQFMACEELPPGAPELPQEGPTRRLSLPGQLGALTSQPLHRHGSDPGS
smiles,measurement,setting,value
CCOc1ccc2cc(-c3nn(C4CCOCC4)c(N)c3C(N)=O)ccc2n1 [BKI-1841],IC50,[1],0.003 µM
same,IC50,[2],> 10 µM
same,CC50,[3],> 80 µM
same,IC50,hERG,> 30 µM
same,difference in parasite excretion vs untreated control,[4]; 5 mg/kg QD days 6-10 postinfection,no significant difference
same,difference in parasite excretion vs untreated control,[4]; 15 mg/kg QD days 6-10 postinfection,no significant difference
same,difference in parasite excretion vs untreated control,[4]; 30 mg/kg QD days 6-10 postinfection,Significant differences
same,difference in parasite excretion vs untreated control,[4]; 60 mg/kg QD days 6-10 postinfection,Significant differences
same,minimum efficacious dose,"[4]; IFN-γ KO mice, once daily (QD) for 5 days, cleared parasite excretion to background by day 13 postinfection",30 mg/kg
same,"effects on MAP, HR, left ventricular contractility vs vehicle","[5]; anesthetized rats, 30-minute IV infusions of 3, 10, 30 mg/kg, significant >15%",No significant effects
same,HR,[5]; IV 3 mg/kg,5%
same,MAP,[5]; IV 3 mg/kg,1%
same,dP/dt@50,[5]; IV 3 mg/kg,3%
same,HR,[5]; IV 10 mg/kg,3%
same,MAP,[5]; IV 10 mg/kg,3%
same,dP/dt@50,[5]; IV 10 mg/kg,4%
same,HR,[5]; IV 30 mg/kg,0%
same,MAP,[5]; IV 30 mg/kg,2%
same,dP/dt@50,[5]; IV 30 mg/kg,11%
CCOc1ccc2cc(-c3nn(C(C)(C)CCO)c(N)c3C(N)=O)ccc2c1 [BKI-1770],oocyst counts in feces vs controls,C. hominis; 5-day treatment (P = 0.001),significantly reduced
same,oocyst counts in feces vs controls,C. hominis; 8-day treatment (P = 0.0168),significantly reduced
same,diarrhea scores,C. hominis; both 5- and 8-day treatment groups,significantly reduced
same,plasma concentration,[6]; 15 mg/kg group,2.4 µM
same,plasma concentration,[6]; 375 mg/kg group,11.8 µM
same,toxicity findings,"[6]; oral 15 mg/kg QD, 14 days",no signs of toxicity
same,toxicity findings,"[6]; oral 75 mg/kg QD, 14 days","some signs of bone toxicity, including thickened epiphyseal plates and increased spongiosa"
same,toxicity findings,[6]; oral 375 mg/kg QD,euthanized after 7 doses due to extreme signs of toxicity
same,IC50,[7],0.002 µM
same,EC50,[8],0.5 µM
same,IC50,[9],> 10 µM
same,CC50,HepG2 cells,> 80 µM
same,CC50,CRL-8155 cells,> 80 µM
same,minimum efficacious dose,[10],30 mg/kg
same,blood chemistry and histology vs control animals,[11],no apparent abnormalities
